Assay results: patent US10058587B2, “Peptide composition for cancer treatment by inhibiting TRPV6 calcium channel activity” (priority 2008, dated 2018)
Where no end group is shown, it is not given here.

Tests used:
[1] = test system: OVCAR3 ovarian cancer cell line; assay: Induction of apoptosis (APO-ONE caspase 3/7) and cell viability (CellTiter Blue); format: cell-based, human; parameters: key to Decline in cell viability: decreased (+); or not (−); settings: for apoptosis (treatment:control ratio) compared with CAT cocktail: CAT = 10 uM Paclitaxel, 20 mM carboplatin
Method: OVCAR-3 was cultured in RPMI 1640 medium supplemented with 1.0 mM sodium pyruvate, 0.01 mg/mL insulin and 10% (v/v) fetal bovine serum.
(§1) The levels of apoptotic induction and cell viability were determined by multiplexing the measurements for single samples. CellTiter Blue and APO-ONE assay systems from Promega allows the determination of cell viability correlated to cell number, and induction of apoptosis. This protocol uses a fluorgenic peptide that contains a peptide recognition-sequence for caspase 3 and caspase 7, […] proteolytic enzymes of the apoptosis cascade. The CellTiter Blue reagent was added to wells in a 96-well plate containing cells under test, immediately after addition of peptide solution or vehicle. About 5000 cells were plated into the wells the day before. At the chosen time (Day 1, Day 2 etc.) the fluorescence was measured at 590 nm (emission) after excitation at 560 nm. The caspase 3/7 activity was measured (485 nm Ex/527 nm Em) in the same wells after adding 120 uL of the Apo-ONE reagent, freeze fracturing at −80° C. for 1 hr, and incubating for 1 hr at room temperature.
(§2) For this work, the concentrations of SorC13 and SorC27 used were 0 uM, 1 uM, 10 uM and 100 uM. The experiments extended over a 5 to 7 day period. All measurements were done in quadruplicate with both a blank (no cells) and control (vehicle, no peptide) used to correct the test measurements. The time-response data, and the dose-response data were plotted as means±standard error of the mean. Any statistical comparisons were done with the Student's t-test or by ANOVA analysis over the dose course. The level of statistical significance was considered to be the 95% confidence interval (i.e., p≤0.05).
(§3) To compare the effect of the two SorC-peptides against the gold-standard treatment for ovarian cancers SorC13 or SorC27 was compared to treatment with a carboplatin and taxol (CAT) cocktail (10 uM Paclitaxel, 20 mM carboplatin) using the APO-ONE assay, which measures the combined activities of caspase 3 and caspase 7. Because of the mixed treatment (CAT), the effects were compared in terms of the ratio of treatment:control. If no effect was noted then the ratio=1. Comparisons of the treatment:control ratios were examined with the Student's t-test at a confidence level of 95%. Ratios of larger than a value of unity indicated a positive effect. The effects are illustrated in FIG. 5.

[2] = test system: MCF 10A non-cancerous breast cell line; assay: as above; format: cell-based, human; parameters: key to Decline in cell viability: cell viability decreased (+); or not (−)
Method: MCF-10A, MCF-12A were cultured in 50% DMEM plus 50% Ham's F12 modified with 2 mM L-glutamine, 1 mM sodium pyruvate, 0.01 mg/mL bovine insulin, 500 ng/mL hydrocortisone, 50 ug/mL of penicillin and streptomycin. The combined medium was supplemented with 5% (v/v) fetal bovine serum.
as §1, §2

[3] = test system: SKOV3 ovarian cancer cell line; assay: as above; format: cell-based, human; parameters: key to Decline in cell viability: decreased (+); or not (−); settings: for apoptosis (treatment:control ratio) compared with CAT cocktail: CAT = 10 uM Paclitaxel, 20 mM carboplatin
Method: SKOV-3 was cultured in […] medium supplemented with 1.5 mM L-glutamine, 2.2 g/L sodium bicarbonate and 10% (v/v) fetal bovine serum.
as §1, §2, §3

[4] = test system: PC3 and LnCaP clone FGC; assay: Apoptosis and cell viability in prostate cancer cell lines (Example 10); format: cell-based, human; settings: 0, 10 and 100 uM, 5 to 7 days
Method: For this work, the concentrations of SorC13 and SorC27 used are 0 uM, 10 uM and 100 uM. The experiments extend over a 5 to 7 day period. All measurements are done in quadruplicate with both a blank (no cells) and control (vehicle, no peptide) used to correct the test measurements. The time-response data, and the dose-response data are plotted as means±standard error of the mean.
The cell lines PC3 (from ATCC CRL-1435) and LnCaP clone FGC (from ATCC CRL-1740), obtained from the American Type Culture Collection (ATCC) and grown under the recommended conditions and in culture media recommended by ATCC. The cell lines are cultured under sterile conditions at 37° C., in a humidified 5% CO2 atmosphere.
Induction of apoptosis and attendant decrease is observed in cell viability in the cancer cell lines. From the large increases in the activities of the caspase3/7 activity, it is clear that there is a time dependent effect and a dose dependent effect on the induction of apoptosis.

[5] = test system: mealworm larvae; assay: Mealworm larva paralytic bioassay; format: in vivo; settings: for larvae paralyzed: 20 nmole/100 mg mass; for paralysis in the mealworm larva model: molar equivalent doses (20 nanomole/100 mg larva)
Excerpt: To show this, the mealworm larva paralytic bioassay reported previously (U.S. Pat. No. 7,119,168) was used. Animals from a mealworm colony were arbitrarily selected and placed in groups (treatment and control). The animals were weighed to allow calculation of equivalent doses. The treatment was with either SorC13 or SorC27 dissolved in buffered insect Ringer's solution. The control was injection was an equivalent volume of insect Ringer's (NaCl; 10.40 g; KCl, 0.32 g; CaCl2, 0.48 g; NaHCO3, 0.32 g dissolved in 1 L of Millipore sterile water, pH 7.4). Peptide formulations were: SorC27 solutions, prepared at 1.0 mg/100 uL insect Ringer's (10 ug/uL, […], MW=2957); and SorC13, prepared at 0.5 mg/100 uL (5 ug/uL, […], MW=1566). The doses were 50 ug SorC27 per 100 mg of animal mass and 25 ug SorC13 per 100 mg of animal mass. Peptide solutions and control saline were injected dorsally at the fourth segment from the head, just under the integumen. Animals were gently ‘tail tweaked’ with forceps to trigger the escape reflex reaction and scored on time-to-effect, duration of effect and intensity of effect.

[6] = test system: MCF 7 breast cancer cell line; assay: Induction of apoptosis (APO-ONE caspase 3/7) and cell viability (CellTiter Blue); format: cell-based, human
Method: MCF-7, MDA-MB-231, MDA-MB-415, MDA-MB-468 were grown in DMEM modified with 10% (v/v) fetal bovine serum, 2 mM L-glutamine and 50 ug/mL each of penicillin and streptomycin.
as §1, §2
To benchmark the effect of both C-type peptides to the gold-standard treatment presently used against breast cancer (Paclitaxel), SorC13, SorC27 and Paclitaxel (10 uM) were compared. Both the APO-ONE assay (Promega) and the CellTiter Blue were used on the panel of breast cancer cell lines. The data were compared directly in terms of mean response and tested for significant difference.

EGKLSSNDTEGGLCKEFLHPSKVDLPR [SorC27]
apoptosis (treatment:control ratio) compared with CAT cocktail [1]: produced apoptosis sooner and more intensely than the CAT cocktail
Apoptosis Index (1 = no effect) ([1]; Day 3, SorC27 10 uM): 2.2
Apoptosis Index (1 = no effect) ([1]; Day 3, SorC27 100 uM): 2.2
Apoptosis Index (1 = no effect) ([1]; Day 5, SorC27 10 uM): 4.1
Apoptosis Index (1 = no effect) ([1]; Day 5, SorC27 100 uM): 6.3
Decline in cell viability ([1]; SorC27): +
Apoptosis Index (1 = no effect) ([2]; SorC27 100 μM): 1.0
Decline in cell viability ([2]; SorC27 100 μM): −
apoptosis (treatment:control ratio) compared with CAT cocktail [3]: produced apoptosis sooner and more intensely than the CAT cocktail
Apoptosis Index (1 = no effect) ([3]; Day 2, SorC27 10 uM): 2.7
Apoptosis Index (1 = no effect) ([3]; Day 2, SorC27 100 uM): 1.5
Apoptosis Index (1 = no effect) ([3]; Day 3, SorC27 1 uM): 1.7
Apoptosis Index (1 = no effect) ([3]; Day 3, SorC27 10 uM): 2.4
Apoptosis Index (1 = no effect) ([3]; Day 3, SorC27 100 uM): 2.7
Decline in cell viability ([3]; SorC27): +
induction of apoptosis and cell viability [4]: induces apoptosis and decreases cell viability
larvae paralyzed ([5]; time 0 min): 0/4
larvae paralyzed ([5]; time 2 min): 0/4
larvae paralyzed ([5]; time 30 min): 0/4
paralysis in the mealworm larva model [5]: no evidence of paralysis
Apoptosis Index (1 = no effect) ([6]; Day 2, SorC27 10 μM): 1.0
Apoptosis Index (1 = no effect) ([6]; Day 2, SorC27 100 μM): 2.8
Apoptosis Index (1 = no effect) ([6]; Day 3, SorC27 10 μM): 2.9
Apoptosis Index (1 = no effect) ([6]; Day 3, SorC27 100 μM): 4.6
induction of apoptosis compared with Paclitaxel (10 uM) ([6]; SorC27 10 uM): more effective at inducing a faster and more intense apoptotic cascade than Paclitaxel

KEFLHPSKVDLPR [SorC13, KEFLHPSKVDLPR]
apoptosis (treatment:control ratio) compared with CAT cocktail [1]: produced earlier and more intense apoptosis cascade than the CAT cocktail
Apoptosis Index (1 = no effect) ([1]; Day 4, SorC13 100 uM): 1.4
Apoptosis Index (1 = no effect) ([1]; Day 5, SorC13 100 uM): 1.7
Decline in cell viability ([1]; Day 5, SorC13 100 uM): +
Apoptosis Index (1 = no effect) ([2]; SorC13 100 uM): 1.0
Decline in cell viability ([2]; SorC13 100 uM): −
apoptosis (treatment:control ratio) compared with CAT cocktail [3]: produced earlier and more intense apoptosis cascade than the CAT cocktail
Apoptosis Index (1 = no effect) ([3]; Day 4, SorC13 100 uM): 2.2
Apoptosis Index (1 = no effect) ([3]; Day 5, SorC13 100 uM): 2.7
Decline in cell viability ([3]; Day 5, SorC13 100 uM): +
induction of apoptosis and cell viability [4]: induces apoptosis and decreases cell viability
larvae paralyzed ([5]; time 0 min): 0/4
larvae paralyzed ([5]; time 2 min): 0/4
larvae paralyzed ([5]; time 30 min): 0/4
paralysis in the mealworm larva model [5]: no evidence of paralysis
Apoptosis Index (1 = no effect) ([6]; SorC13 1 uM): 1.2
Apoptosis Index (1 = no effect) ([6]; SorC13 10 uM): 1.1
Apoptosis Index (1 = no effect) ([6]; SorC13 100 uM): 2.4
